Experimental data taken from patent US10464946B2, “Crystalline forms of thienopyrimidine compound” (HANMI PHARM. CO., LTD., priority 2015, dated 2019).

How the values were obtained:
[1] = Dynamic vapor sorption (DVS) hygroscopicity; format: physicochemical; details: relative humidity of 10% to 90%; for stability from the hygroscopic aspect: expected from the DVS result
Description: Dynamic vapor sorption (DVS) analysis was performed in a DVS advantage (Surface measurement system, United Kingdom) analyzer at 25° C. with a relative humidity of 0% to 90%. A sample in an amount of 10 mg was placed into a wire-mesh vapor sorption balance pan and then attached to a DVS advantage dynamic vapor sorption balance via surface measurement systems. Until a stable weight was achieved (99.5% completion of steps), the sample was applied to a ramping profile with a relative humidity of 10% to 90% with a 10% increase of the sample while maintaining the sample in each step. Upon completion of the sorption cycle, the sample was dried using the same process while maintaining a relative humidity of […]. The changes in the sample weight during the adsorption/desorption cycle (repeated 3 times) were recorded and the hygroscopicity of the sample was measured.

[2] = Storage stability under long-term and accelerated conditions; format: physicochemical; details: for stability under a long-term storage condition: temperature of 25° C. and relative humidity of 60%; for stability under an accelerated condition: temperature of 40° C. and relative humidity of 75%
Description: High performance liquid chromatography (HPLC) analysis was performed for the purposes of analyzing purity and contents such as a stability test, etc., using an Agilent 1100/1200 series HPLC Systems (Agilent, USA) analyzer, and the conditions used for HPLC were as follows.

stability from the hygroscopic aspect [1] | water content / hygroscopic level in the DVS ([1]; 25° C.) | stability under a long-term storage condition [2] | stability under an accelerated condition [2] | SMILES
stable | about 1.5% |  |  | C=CC(=O)Nc1cccc(Oc2nc(Nc3ccc(N4CCN(C)CC4)cc3)nc3ccsc23)c1 [Example 1, N-(3-(2-(4-(4-methylpiperazin-1-yl)phenylamino)thieno[3,2-d]pyrimidin-4-yloxy)phenyl)acrylamide]
unstable |  |  |  | C=CC(=O)Nc1cccc(Oc2nc(Nc3ccc(N4CCN(C)CC4)cc3)nc3ccsc23)c1 [Comparative Example 1, N-(3-(2-(4-(4-methylpiperazin-1-yl)phenylamino)thieno[3,2-d]pyrimidin-4-yloxy)phenyl)acrylamide, reference compound]
very stable |  | very stable | very stable | C=CC(=O)Nc1cccc(Oc2nc(Nc3ccc(N4CCN(C)CC4)cc3)nc3ccsc23)c1 [Example 4, N-(3-(2-(4-(4-methylpiperazin-1-yl)phenylamino)thieno[3,2-d]pyrimidin-4-yloxy)phenyl)acrylamide]
very stable |  | very stable | very stable | C=CC(=O)Nc1cccc(Oc2nc(Nc3ccc(N4CCN(C)CC4)cc3)nc3ccsc23)c1 [Example 3, N-(3-(2-(4-(4-methylpiperazin-1-yl)phenylamino)thieno[3,2-d]pyrimidin-4-yloxy)phenyl)acrylamide]
